Experimental data reported in ChEMBL document CHEMBL2311324, “Inhibitors of HIV-1 attachment. Part 10. The discovery and structure-activity relationships of 4-azaindole cores” (Bioorg Med Chem Lett, 2013).

How the values were obtained:
[1] = Cytotoxicity against human HeLa cells expressing CD4, CCR5 after 3 days; assay type: cell-based; details: HeLa cells expressing CD4 and CCR5
[2] = test system: Human immunodeficiency virus 1; experiment: Antiviral activity against HIV1 JR-FL in human HeLa cells expressing CD4, CCR5 assessed as inhibition of integration of viral DNA into cell genome after 3 days by luciferase reporter gene assay; assay type: functional, organism-based; details: Human immunodeficiency virus 1, JR-FL, 72 h
Rattus norvegicus [3] = experiment: Oral bioavailability in rat at 5 mg/kg; assay type: ADME, organism-based; details: in vivo
Rattus norvegicus [4] = experiment: (§1) AUC in rat at 5 mg/kg, po; assay type: ADME, organism-based, Plasma; design: dose 5 mg/kg, route oral; details: in vivo
[5] = as §1; assay type: ADME, organism-based, Plasma; design: dose 5 mg/kg, route oral; details: plasma

Row | Structure (SMILES) | EC50 [2] [nM] | F (Rattus norvegicus [3]) [%] | AUC (Rattus norvegicus [4]) [µM·h] | AUC [5] [µM·h] | CC50 at 72 h [1] [nM]
1 | O=C(C(=O)N1CCN(C(=O)c2ccccc2)CC1)c1c[nH]c2c(-n3nnc4ccccc43)ccnc12 | 23.6 |  |  |  | 246000
2 | Cc1csc(-c2ccnc3c(C(=O)C(=O)N4CCN(C(=O)c5ccccc5)CC4)c[nH]c23)n1 | 0.2 |  |  |  | 23000
3 | C[C@@H]1CN(C(=O)c2ccccc2)CCN1C(=O)C(=O)c1c[nH]c2c(-c3ncco3)ccnc12 | 0.18 |  |  |  | > 300000
4 | C[C@@H]1CN(C(=O)c2ccccc2)CCN1C(=O)C(=O)c1c[nH]c2c(-c3cnccn3)ccnc12 | 0.27 |  |  |  | 15300
5 | O=C(C(=O)N1CCN(C(=O)c2ccccc2)CC1)c1c[nH]c2c(-c3cnccn3)ccnc12 | 1.71 |  |  |  | > 300000
6 | C[C@@H]1CN(C(=O)c2ccccc2)CCN1C(=O)C(=O)c1c[nH]c2cnccc12 | 22 |  |  |  | > 300000
7 | C[C@@H]1CN(C(=O)C(=O)c2c[nH]c3c(Cl)ccnc23)CCN1C(=O)c1ccccc1 | 11.6 |  |  |  | 300000
8 | COc1ccnc2c(C(=O)C(=O)N3CCN(C(=O)c4ccccc4)C[C@H]3C)cn(C)c12 | 7.37 |  |  |  | > 300000
9 | C[C@@H]1CN(C(=O)c2ccccc2)CCN1C(=O)C(=O)c1c[nH]c2c(Cl)ccnc12 | 1.22 |  |  |  | > 300000
10 | O=C(C(=O)N1CCN(C(=O)c2ccccc2)CC1)c1c[nH]c2c(-n3cccn3)ccnc12 | 0.89 |  |  |  | > 300000
11 | C[C@@H]1CN(C(=O)C(=O)c2c[nH]c3c(-c4ncco4)ccnc23)CCN1C(=O)c1ccccc1 | 0.34 | 60 | 5.6 |  | 135000
12 | C[C@@H]1CN(C(=O)c2ccccc2)CCN1C(=O)C(=O)c1c[nH]c2c(-c3ccsc3)ccnc12 | 0.18 |  |  |  | 94500
13 | COc1cncc2[nH]cc(C(=O)C(=O)N3CCN(C(=O)c4ccccc4)C[C@H]3C)c12 | 1.3 |  |  |  | 6000
14 | Cc1cnc(-c2ccnc3c(C(=O)C(=O)N4CCN(C(=O)c5ccccc5)[C@H](C)C4)c[nH]c23)s1 | 0.71 |  |  |  | 28000
15 | C[C@@H]1CN(C(=O)c2ccccc2)CCN1C(=O)C(=O)c1c[nH]c2ccccc12 | 4.9 |  |  |  | 195000
16 | Cc1csc(NC(=O)c2ccnc3c(C(=O)C(=O)N4CCN(C(=O)c5ccccc5)C[C@H]4C)c[nH]c23)n1 | 3.4 |  |  |  | > 300000
17 | C[C@@H]1CN(C(=O)c2ccccc2)CCN1C(=O)C(=O)c1c[nH]c2ccncc12 | 580 |  |  |  | > 300000
18 | Cc1ccnc2c(C(=O)C(=O)N3CCN(C(=O)c4ccccc4)CC3)c[nH]c12 | 46.3 |  |  |  | > 300000
19 | C[C@@H]1CN(C(=O)c2ccccc2)CCN1C(=O)C(=O)c1c[nH]c2c(C(=O)Nc3nccs3)ccnc12 | 0.43 |  |  |  | > 300000

Row | Structure (SMILES) | EC50 [2] [nM] | F (Rattus norvegicus [3]) [%] | AUC (Rattus norvegicus [4]) [µM·h] | AUC [5] [µM·h] | CC50 at 72 h [1] [nM]
20 | C[C@@H]1CN(C(=O)C(=O)c2c[nH]c3c(-c4cccs4)ccnc23)CCN1C(=O)c1ccccc1 | 0.24 |  |  |  | 168000
21 | O=C(C(=O)N1CCN(C(=O)c2ccccc2)CC1)c1c[nH]c2c(Cl)ccnc12 | 18.4 |  |  |  | > 300000
22 | CNC(=O)c1ccnc2c(C(=O)C(=O)N3CCN(C(=O)c4ccccc4)C[C@H]3C)c[nH]c12 | 2.48 |  |  |  | > 300000
23 | C[C@@H]1CN(C(=O)C(=O)c2c[nH]c3c(-n4nc5ccccc5n4)ccnc23)CCN1C(=O)c1ccccc1 | 0.31 |  |  |  | 74000
24 | COc1ccnc2c(C(=O)C(=O)N3CCN(C(=O)c4ccccc4)C[C@H]3C)c[nH]c12 | 0.63 |  |  |  | > 300000
25 | Cc1ncnn1-c1ccnc2c(C(=O)C(=O)N3CCN(C(=O)c4ccccc4)[C@H](C)C3)c[nH]c12 | 10.8 |  |  |  | > 300000
26 | Cc1csc(-c2ccnc3c(C(=O)C(=O)N4CCN(C(=O)c5ccccc5)CC4)c[nH]c23)c1 | 0.02 |  |  |  | 85000
27 | Cc1ccnc2c(C(=O)C(=O)N3CCN(C(=O)c4ccccc4)C[C@H]3C)c[nH]c12 | 3.06 |  |  |  | > 300000
28 | O=C(C(=O)N1CCN(C(=O)c2ccccc2)CC1)c1c[nH]c2c(-n3nc4ccccc4n3)ccnc12 | 0.21 |  |  |  | 124000
29 | COc1cccc(-c2ccnc3c(C(=O)C(=O)N4CCN(C(=O)c5ccccc5)CC4)c[nH]c23)n1 | 7.4 |  |  |  | 174000
30 | COc1ccnc2[nH]cc(C(=O)C(=O)N3CCN(C(=O)c4ccccc4)C[C@H]3C)c12 | 1 |  |  | 1.3 | > 300000
31 | Cc1ncn(-c2ccnc3c(C(=O)C(=O)N4CCN(C(=O)c5ccccc5)[C@H](C)C4)c[nH]c23)n1 | 0.59 |  |  |  | > 300000
32 | C[C@@H]1CN(C(=O)c2ccccc2)CCN1C(=O)C(=O)c1c[nH]c2ncccc12 | 1.7 |  |  |  | 280000
33 | O=C(C(=O)N1CCN(C(=O)c2ccccc2)CC1)c1c[nH]c2c(-n3nnc4cccnc43)ccnc12 | 10.6 |  |  |  | > 300000
34 | Cc1noc(C)c1-c1ccnc2c(C(=O)C(=O)N3CCN(C(=O)c4ccccc4)C[C@H]3C)c[nH]c12 | 1.05 |  |  |  | > 300000
35 | Cc1cnn(-c2ccnc3c(C(=O)C(=O)N4CCN(C(=O)c5ccccc5)[C@H](C)C4)c[nH]c23)c1 | 1.59 |  |  |  | > 150000
36 | CON(C)C(=O)c1ccnc2c(C(=O)C(=O)N3CCN(C(=O)c4ccccc4)C[C@H]3C)c[nH]c12 | 61.1 |  |  |  | > 300000
37 | O=C(C(=O)N1CCN(C(=O)c2ccccc2)CC1)c1c[nH]c2c(-n3cncn3)ccnc12 | 0.64 |  |  |  | > 300000
38 | C[C@@H]1CN(C(=O)c2ccccc2)CCN1C(=O)C(=O)c1c[nH]c2c(-c3cncnc3)ccnc12 | 0.68 |  |  |  | 35300

Further lines, with some results ahead:

Row | EC50 [2] [nM] | F (Rattus norvegicus [3]) [%] | AUC (Rattus norvegicus [4]) [µM·h] | AUC [5] [µM·h] | Structure (SMILES) | CC50 at 72 h [1] [nM]
39 | 0.46 |  |  |  | Cc1ccn(-c2ccnc3c(C(=O)C(=O)N4CCN(C(=O)c5ccccc5)[C@H](C)C4)c[nH]c23)n1 | 300000
40 | 0.29 |  |  |  | CC(=O)c1ccc(-c2ccnc3c(C(=O)C(=O)N4CCN(C(=O)c5ccccc5)CC4)c[nH]c23)s1 | 268000
41 | 0.21 |  |  |  | Cc1csc(-c2ccnc3c(C(=O)C(=O)N4CCN(C(=O)c5ccccc5)[C@H](C)C4)c[nH]c23)c1 | 123000
42 | 0.21 |  |  |  | O=C(C(=O)N1CCN(C(=O)c2ccccc2)CC1)c1c[nH]c2c(-c3nccs3)ccnc12 | 150000
43 | 0.88 |  |  |  | O=C(C(=O)N1CCN(C(=O)c2ccccc2)CC1)c1c[nH]c2c(-n3ccnn3)ccnc12 | > 300000
44 | 12.3 |  |  |  | COc1ccnc2c(C(=O)C(=O)N3CCN(C(=O)c4ccccc4)CC3)c[nH]c12 | > 300000
45 | 0.52 |  |  |  | Cc1cnc(-c2ccnc3c(C(=O)C(=O)N4CCN(C(=O)c5ccccc5)CC4)c[nH]c23)s1 | 251000
46 | 0.1 |  |  |  | C[C@@H]1CN(C(=O)c2ccccc2)CCN1C(=O)C(=O)c1c[nH]c2c(-c3nccs3)ccnc12 | > 300000
47 | 0.8 |  |  |  | COc1cccc2[nH]cc(C(=O)C(=O)N3CCN(C(=O)c4ccccc4)C[C@H]3C)c12 | 250000
48 | 0.09 |  |  |  | O=C(C(=O)N1CCN(C(=O)c2ccccc2)CC1)c1c[nH]c2c(-c3cncs3)ccnc12 | > 300000
49 | 0.31 | 41 | 1.3 |  | C[C@@H]1CN(C(=O)C(=O)c2c[nH]c3c(-c4nccs4)ccnc23)CCN1C(=O)c1ccccc1 | 35000
50 | 0.32 |  |  |  | COc1ccc(-c2ccnc3c(C(=O)C(=O)N4CCN(C(=O)c5ccccc5)C[C@H]4C)c[nH]c23)cc1 | > 300000
51 | 0.32 | 65 | 9.6 |  | O=C(C(=O)N1CCN(C(=O)c2ccccc2)CC1)c1c[nH]c2c(-n3nccn3)ccnc12 | > 300000
52 | 0.19 |  |  |  | Cc1csc(-c2ccnc3c(C(=O)C(=O)N4CCN(C(=O)c5ccccc5)[C@H](C)C4)c[nH]c23)n1 | 30000
53 | 0.1 |  |  |  | C[C@@H]1CN(C(=O)c2ccccc2)CCN1C(=O)C(=O)c1c[nH]c2c(-c3cc4ccccc4s3)ccnc12 | 170000
54 | 0.39 |  |  |  | O=C(C(=O)N1CCN(C(=O)c2ccccc2)CC1)c1c[nH]c2c(-c3ncco3)ccnc12 | > 300000
55 | 0.04 |  |  |  | Cc1csc(-c2ccnc3c(C(=O)C(=O)N4CCN(C(=O)c5ccccc5)C[C@H]4C)c[nH]c23)c1 | 48900
56 | 3.38 |  |  |  | C[C@@H]1CN(C(=O)c2ccccc2)CCN1C(=O)C(=O)c1c[nH]c2c(C(=O)O)ccnc12 | > 300000
57 | 5.34 |  |  |  | C[C@@H]1CN(C(=O)C(=O)c2c[nH]c3c(-n4nnc5ccccc54)ccnc23)CCN1C(=O)c1ccccc1 | 71000
58 | 0.93 |  |  |  | O=C(C(=O)N1CCN(C(=O)c2ccccc2)CC1)c1c[nH]c2c(-c3ccccn3)ccnc12 | 231000
59 | 0.44 | 78 | 3.3 |  | C[C@@H]1CN(C(=O)C(=O)c2c[nH]c3c(-n4nccn4)ccnc23)CCN1C(=O)c1ccccc1 | 300000
60 | 1.6 |  |  |  | C[C@@H]1CN(C(=O)c2ccccc2)CCN1C(=O)C(=O)c1c[nH]c2cccnc12 | > 300000
61 | 0.02 |  |  |  | C[C@@H]1CN(C(=O)c2ccccc2)CCN1C(=O)C(=O)c1c[nH]c2c(-c3cccs3)ccnc12 | > 300000
